Experiments:
[1] = target: Dual specificity mitogen-activated protein kinase kinase; MEK1/2 (Homo sapiens, UniProt P36507+Q02750); assay: Activation of MEK1/2 in EGF-stimulated human MDA-MB-231 cells assessed as increase in pERK1/2 levels preincubated for 30 mins followed by EGF stimulation measured after 15 mins by Western blot analysis relative to control; type: cell-based; details: mda-mb-231, 0.25 h
[2] = target: T1, Dual specificity mitogen-activated protein kinase kinase 5 (Homo sapiens, UniProt Q13163); assay: Activation of MEK5 in EGF-stimulated human MDA-MB-231 cells assessed as increase in pERK5 levels preincubated for 30 mins followed by EGF stimulation measured after 15 mins by Western blot analysis relative to control; type: cell-based; design: concentration or dose not given beside the values; details: mda-mb-231, 0.25 h
T1 sequence (Q13163 whole entry): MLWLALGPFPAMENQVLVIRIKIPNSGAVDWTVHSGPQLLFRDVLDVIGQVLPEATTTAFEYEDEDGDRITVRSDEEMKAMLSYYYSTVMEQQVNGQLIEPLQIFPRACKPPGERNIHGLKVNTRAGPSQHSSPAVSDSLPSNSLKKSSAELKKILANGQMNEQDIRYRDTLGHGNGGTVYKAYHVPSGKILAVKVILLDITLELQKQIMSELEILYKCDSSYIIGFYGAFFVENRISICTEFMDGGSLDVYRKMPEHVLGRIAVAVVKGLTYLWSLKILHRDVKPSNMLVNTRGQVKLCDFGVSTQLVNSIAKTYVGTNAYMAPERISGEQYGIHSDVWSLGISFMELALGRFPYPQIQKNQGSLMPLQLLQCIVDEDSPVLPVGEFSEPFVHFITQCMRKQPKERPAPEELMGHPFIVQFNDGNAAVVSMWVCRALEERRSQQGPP

MDA-MB-231 = assay: Antitumor activity against human MDA-MB-231 cells xenografted in SCID/Beige mouse assessed as tumor volume at 25 mg/kg, qd measured on day 30 (reference value: 49.48 +/- 3.44 mm3); type: functional

CN1CCN(C(=O)c2ccc(F)c(F)c2N(C)c2ccc(I)cc2F)CC1
Activity [1]: 20%

O=C(c1ccc(F)c(F)c1Nc1ccc(I)cc1F)N1CCNCC1
Activity [2]: 20%

O=C(O)c1ccc(F)c(F)c1Nc1ccccc1
Activity [2]: 20%

NC(=O)c1ccccc1Nc1ccccc1F
Activity [1]: 20%

CN1CCN(C(=O)c2ccc(F)c(F)c2Nc2ccccc2)CC1
Activity [1]: 20%

CN(c1ccc(I)cc1F)c1c(C(N)=O)ccc(F)c1F
Activity [2]: 20%

O=C(O)c1ccc(F)c(F)c1Nc1ccccc1F
Activity [2]: 20%

CCN(CC)C(=O)c1ccc(F)c(F)c1Nc1ccc(I)cc1F
Activity [2]: 20%

NC(=O)c1ccc(F)c(F)c1Nc1ccc(I)cc1F
Activity (MDA-MB-231): 29.1 mm3
